{
  "source": "paper PMC6435570",
  "about": "“Zafirlukast Is a Dual Modulator of Human Soluble Epoxide Hydrolase and Peroxisome Proliferator-Activated Receptor γ” (Frontiers in Pharmacology, 2019)",
  "key": {"[1]": {"system": "PPARγ2 phosphorylation at serine 273", "experiment": "TNFα triggered PPARγ Ser273 phosphorylation in 3T3-L1 adipocytes (Western Blot)", "assay_type": "cell-based, murine", "details": "zafirlukast 1 or 10 μM or rosiglitazone 2 μM for 45 min, then TNFα 50 ng/mL 30 min", "method": "Total 3T3-L1 or HEP-G2 cell lysates were prepared in lysis buffer (20 mM Tris-HCl, pH 7.4, 150 mM NaCl, 2 mM EDTA, 1% Triton X-100, 0.5% NP-40) supplemented with protease and phosphatase inhibitors (PhosSTOP^TM + cOmplete^TM Mini, Roche Diagnostics GmbH, Mannheim, Germany). Protein concentrations were quantified using the Pierce^TM BCA Protein Assay Kit (Thermo Scientific, Waltham, MA, United States). Total protein (30 μg/lane) was separated by SDS-polyacrylamide gel electrophoresis and transferred to nitrocellulose membranes (GE Healthcare Life Sciences, Little Chalfont, United Kingdom). Membranes were blocked with Odyssey blocking reagent (LI-COR Biosciences, Bad Homburg, Germany) for 1 h at room temperature. […] Afterwards, membranes were washed and incubated with fluorescence conjugated secondary antibodies (IRDye, LI-COR Biosciences, Bad Homburg, Germany). […] The density of the immune reactive bands was analyzed using the Image Studio 5.2 software (LI-COR Biosciences, Bad Homburg, Germany).\nWe induced this post-translational modification by short-term treatment of the differentiated cells with the cytokine TNFα, generating a pro-inflammatory milieu. […] For this, we used an assay system in which the recruitment of the fluorescence-tagged PPARγ coactivator CBP to the PPARγ-LBD was assessed by time-resolved FRET technique in presence and absence of rosiglitazone."}, "CysLT1R": {"system": "CysLT1R", "details": "Table 2 comparison column; no method, no reference given; cited from earlier work"}, "recombinant human sEH": {"molecular_target": "T1, recombinant human sEH (Homo sapiens, UniProt P34913)", "T1 sequence (P34913 1-555)": "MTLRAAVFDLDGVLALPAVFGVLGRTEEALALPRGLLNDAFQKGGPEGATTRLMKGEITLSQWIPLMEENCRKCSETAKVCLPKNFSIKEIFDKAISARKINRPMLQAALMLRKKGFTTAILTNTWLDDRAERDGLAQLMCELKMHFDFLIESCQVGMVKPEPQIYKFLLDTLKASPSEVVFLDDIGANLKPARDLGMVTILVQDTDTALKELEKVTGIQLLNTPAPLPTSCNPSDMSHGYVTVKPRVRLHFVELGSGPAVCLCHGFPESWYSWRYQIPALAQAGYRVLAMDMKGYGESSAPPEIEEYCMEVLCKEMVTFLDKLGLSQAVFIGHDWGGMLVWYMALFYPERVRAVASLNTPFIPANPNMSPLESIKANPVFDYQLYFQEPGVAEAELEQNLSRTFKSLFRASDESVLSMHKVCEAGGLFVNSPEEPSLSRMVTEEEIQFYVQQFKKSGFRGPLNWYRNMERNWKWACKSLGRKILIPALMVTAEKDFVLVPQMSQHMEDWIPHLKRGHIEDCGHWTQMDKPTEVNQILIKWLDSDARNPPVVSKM", "experiment": "Recombinant sEH activity (PHOME fluorescence assay)", "assay_type": "biochemical", "details": "PHOME 50 μM, 30 min preincubation at RT, read-out: sEH rec. IC50", "protocol": "For determination of IC50 values of recombinant human sEH a 96-well fluorescence-based assay system was used as described before ([Blöcher et al., 2016a]). In brief, non-fluorescent PHOME (3 phenylcyano-(6-methoxy-2-naphthalenyl)methyl ester 2-oxiraneacetic acid, Cayman Chemicals, Ann Arbor, MI, United States) was used as substrate, which is hydrolyzed by sEH to the fluorescent 6-methoxynaphthaldehyde ([Rau et al., 2006]). The formation of the fluorescent product was measured (λem = 330 nm, λex = 465 nm) by an Infinite F200 Pro plate reader (Tecan Group Ltd., Männedorf, Switzerland). For that purpose, 2 μg recombinant human sEH in 100 μl bis-Tris buffer (pH 7, 0.1 mg/mL BSA, 0.01% Triton-X 100) was applied per well. This protein solution was then incubated with different concentrations of the test compounds for 30 min at RT. After this, 10 μL of the substrate were added (final concentration 50 μM). The formation of 6-methoxynaphthaldehyde was monitored for 30 min. All concentrations were tested in triplicate wells."}, "[2]": {"parameters": "method as in Brocks et al., 1996; Knorr et al., 2001; Karonen et al., 2012", "details": "ref Brocks et al., 1996; Knorr et al., 2001; Karonen et al., 2012; cited from earlier work"}, "[3]": {"parameters": "method as in Brocks et al., 1996; Knorr et al., 2001; Karonen et al., 2012", "details": "single oral dose of 20 mg; ref Brocks et al., 1996; Knorr et al., 2001; Karonen et al., 2012; cited from earlier work"}},
  "note": "“Also recorded” adds a separate entry of the source.",
  "data": [
    {"compound": "COc1cc(C(=O)NS(=O)(=O)c2ccccc2C)ccc1Cc1cn(C)c2ccc(NC(=O)OC3CCCC3)cc12", "note": "[Zafirlukast, zafirlukast]", "values": [
      {"measurement": "TNFα induced phosphorylation of PPARγ2 at serine 273", "setting": "[1]", "value": "inhibited this phosphorylation; also recorded: completely revert this phosphorylation"},
      {"measurement": "IC50", "setting": "CysLT1R", "value": 5, "unit": "nM"},
      {"measurement": "IC50", "setting": "recombinant human sEH", "value": "1970 ± 80", "unit": "nM"},
      {"measurement": "Plasma protein binding", "setting": "[2]", "value": "High"},
      {"measurement": "Peak serum level", "setting": "[3]", "value": "about 1 μM"}
    ]}
  ]
}
